Laboratory results from patent publication US4888339A, “Agent for prophylaxis and treatment of cardiac hypertrophy” (Tanabe Seiyaku Co., Ltd., priority 1986, dated 1989).

Tests used:
Format in all cases: in vivo
[1] = test system: rats; test: Oral toxicity in rats; conditions: 5 g/kg, observed for 5 days
Description: Moreover, the compounds (I) of this invention have low toxicity.

[2] = test system: spontaneously hypertensive rats (SHR); test: Activity for inhibiting cardiac hypertrophy, oral administration to SHR (Experiment 1); conditions: 5 mg/kg/day for 10 weeks
Method: The test compound: (4S)-1-methyl-3-[(2S)-2-[N-((1S)-1-ethoxycarbonyl-3-phenylpropyl)amino]propionyl]-2-oxo-imidazolidine-4-carboxylic acid hydrochloride was dissolved in distilled pure water and orally administered to spontaneously hypertensive rats (SHR) (4 weeks old age at the beginning of experiment, groups of 6 rats) at a dose of 5 mg/kg/day for 10 weeks.
Twenty-four hours after the final dosing, the SHR was killed by bleeding under ether anesthesia. The weight of heart was measured and the weight of heart per 100 g of body weight (relative heart weight) was calculated. After that, the heart was used for the measurement of cross sectional area of the heart.
Method for measurement of cross sectional area of heart is as follows:
(i) After weighing the excised heart, the excised heart was immersed in 10% neutral buffered formalin solution for about one week to fix said heart. The fixed heart was cut at a definitive region crossing the left and right ventricles to obtain a sample (thickness: about 2 mm). The sample was again immersed in a 10% neutral buffered formalin solution overnight, treated with paraffin in a usual manner (Note 1) and then stained with hematoxyin eosine (HE).
(ii) The microscopic image of the stained sample was examined by an image analyzer (Note 2) to give the ratio of the area of stained region to the area of unstained region (the latter area being the gap produced in preparing the sample).
(iii) The real area of the sample was obtained by an image analyzer and then multiplied by the ratio obtained in the above (ii) to give the cross sectional area of the heart.
[Note 1]: It is disclosed in "Byori Gijutsu Mannual" (Mannual for Pathorogical Technology) 3, Technology for Histopathorogical Preparation, ed. by Nippon Byori Gakkai, issued on Mar. 30, 1981 by Ishiyaku Shuppan K.K.
[Note 2]: Nikon three tube color television camera and Nikon Ruzex II, manufactured by Nippon Kogaku K.K.
The inhibitory ratio was calculated by the following equation: [formula]

[3] = test system: spontaneously hypertensive rats (SHR); test: Activity for inhibiting cardiac hypertrophy, intraperitoneal administration to SHR (Experiment 2); conditions: 0.5 mg/kg/day for 10 weeks
Method: The test compound: (4S)-1-methyl-3-[(2S)-2-[N-((1S)-1-carboxy-3-phenylpropyl)amino]propionyl]-2-oxo-imidazolidine-4-carboxylic acid hydrochloride was dissolved in distilled pure water and intraperitoneally administered to spontaneously hypertensive rats (SHR) (4 weeks old age at the beginning of experiment, groups of 9 rats) at a dose of 0.5 mg/kg/day for 10 weeks.
Twenty-four hours after the final dosing, the SHR was killed by bleeding under ether anesthesia. The weight of heart was measured and the weight of heart per 100 g of body weight (relative heart weight) was calculated.

[4] = SHR, versus non-administ. group

For `CCOC(=O)[C@H](CCc1ccccc1)N[C@@H](C)C(=O)N1C(=O)N(C)C[C@H]1C(=O)O` [(4S)-1-methyl-3-[(2S)-2-[N-((1S)-1-ethoxycarbonyl-3-phenylpropyl)amino]propionyl]-2-oxo-imidazolidine-4-carboxylic acid], the Mortality [1] was “no rats was died” and the “Inhibition of increase of heart weight (in words)” value ([2]; spontaneously hypertensive rats) was “significantly inhibited increase of heart weight”.

For `CCOC(=O)[C@H](CCc1ccccc1)N[C@@H](C)C(=O)N1C(=O)N(C)C[C@H]1C(=O)O.Cl` [(4S)-1-methyl-3-[(2S)-2-[N-((1S)-1-ethoxycarbonyl-3-phenylpropyl)amino]propionyl]-2-oxo-imidazolidine-4-carboxylic acid hydrochloride], the “Inhibition of cardiac hypertrophy (in words)” value ([2]; SHR) was “clear inhibition of cardiac hypertrophy”, the “Relative heart weight (weight of heart per 100 g of body weight)” value ([2]; SHR, groups of 6, non-administ. group 0.399 ± 0.01, * significant at 1% level) was 0.34 ± 0.01 g and the “Sectional area of heart” value ([2]; SHR, groups of 6, non-administ. group 66.8 ± 4.0, * significant at 1% level) was 57.9 ± 2.9 mm^2. The “Inhibitory ratio, relative heart weight” value [2, 4] was 13% and the “Inhibitory ratio, sectional area of heart” value [2, 4] was 13%.

`C[C@H](N[C@@H](CCc1ccccc1)C(=O)O)C(=O)N1C(=O)N(C)C[C@H]1C(=O)O.Cl` [(4S)-1-methyl-3-[(2S)-2-[N-((1S)-1-carboxy-3-phenylpropyl)amino]propionyl]-2-oxo-imidazolidine-4-carboxylic acid hydrochloride] was tested, and the “Inhibition of cardiac hypertrophy (in words)” value [3] was “clear inhibition of cardiac hypertrophy”, the “Relative heart weight (weight of heart per 100 g of body weight)” value ([3]; groups of 9, non-administ. group 0.36 ± 0.013, ** significant at 0.1% level) was 0.33 ± 0.012 g and the “Inhibitory ratio, relative heart weight” value ([3]; versus non-administ. group) was 8%.

In the case of `C[C@H](N[C@@H](CCc1ccccc1)C(=O)O)C(=O)N1C(=O)N(C)C[C@H]1C(=O)O` [(4S)-1-methyl-3-[(2S)-2-[N-((1S)-1-carboxy-3-phenylpropyl)amino]propionyl]-2-oxo-imidazolidine-4-carboxylic acid], the Mortality [1] is reported as “no rats was died”.
